Test results: PMC6895180 (Nature Communications, 2019)
“And” between values parts separate entries of the source, which are not always exact repeats. Equal entries are not always repeated. Where two headings read alike, the source gives them in different places. Marks after values point to notes of the source that are not given here.

What was measured:
[1] = test system: Lister 427WT T. b. brucei; assay: Adenosine deaminase susceptibility (drug sensitivity with/without 2 µM deoxycoformycin); assay type: cell-based, Trypanosoma brucei brucei
Procedure: Drug susceptibility tests with Lister 427WT, TbAT1-KO[48], B48[26] and ISMR1[27] were performed using an assay based on the viability indicator dye resazurin in 96-well plates, each well containing 2 × 10^4 cells. The plates were incubated for 48 h with a doubling dilution series of the test compounds in HMI-9/fetal bovine serum at 37 °C/5% CO2 (23 dilutions starting at 100 µM, except for the pentamidine control (50 µM)), after which resazurin (20 µL of 125 µg mL^−1 resazurin sodium salt solution was added to each well (containing 200 µL of cells and test compound)) was added to each well and the plates incubated for another 24 h. Fluorescence was determined using a FLUOstar Optima (BMG Labtech, Durham, NC) and the results fitted to a sigmoid curve with variable slope using Prism 5.0 or Prism 7.04 (GraphPad, San Diego, CA). […]
Adenosine deaminase susceptibility
in the presence or absence of 2 µM 2’-deoxycoformycin. […]

[2] = test system: B48: pentamidine, diminazene and melaminophenyl arsenical resistant T. brucei line; assay: microbe, parasite or virus in culture; assay type: cell-based, Trypanosoma brucei brucei; details: for EC50: Trypanosoma brucei
[3] = test system: T. b. brucei Lister 427WT; assay: Drug susceptibility test (resazurin), Lister 427WT; assay type: cell-based, Trypanosoma brucei brucei; details: Trypanosoma brucei
Procedure: (§1) Drug susceptibility tests with Lister 427WT, TbAT1-KO[48], B48[26] and ISMR1[27] were performed using an assay based on the viability indicator dye resazurin in 96-well plates, each well containing 2 × 10^4 cells. The plates were incubated for 48 h with a doubling dilution series of the test compounds in HMI-9/fetal bovine serum at 37 °C/5% CO2 (23 dilutions starting at 100 µM, except for the pentamidine control (50 µM)), after which resazurin (20 µL of 125 µg mL^−1 resazurin sodium salt solution was added to each well (containing 200 µL of cells and test compound)) was added to each well and the plates incubated for another 24 h. Fluorescence was determined using a FLUOstar Optima (BMG Labtech, Durham, NC) and the results fitted to a sigmoid curve with variable slope using Prism 5.0 or Prism 7.04 (GraphPad, San Diego, CA).

[4] = test system: ISMR1: isometamidium-resistant T. brucei cell line; assay: microbe, parasite or virus in culture; assay type: cell-based, Trypanosoma brucei brucei; details: for EC50: Trypanosoma brucei
Procedure: as §1

[5] = test system: TbAT1-KO: T. brucei cell line lacking the TbAT1(P2) transporter gene; assay: microbe, parasite or virus in culture; assay type: cell-based, Trypanosoma brucei brucei; details: for EC50: Trypanosoma brucei
Procedure: as §1

[6] = Metabolic stability, pooled human liver microsomes (phase I and II)
Procedure: (§2) Mouse, rat, and pooled human liver microsomes were purchased from a commercial source (Corning) and stored at -80 °C. NADPH generating system solutions A and B and UGT reaction mix solutions A and B (Corning) were kept at -20°C. The test compound and the reference compounds diclofenac (MW […]
(§3) microsomal stability assay was carried out based on the BD Biosciences Guidelines for Use (TF000017 Rev1.0) with minor adaptations. Metabolic stability of the compounds was studied through the CYP450 superfamily (phase I metabolism) by fortification with reduced nicotinamide adenine dinucleotide phosphate (NADPH) and through uridine glucuronosyl-transferase (UGT) enzymes (phase II metabolism) by fortification with uridine diphosphate glucuronic acid (UDPGA). For the CYP450 and other NADPH dependent enzymes, both compounds were incubated at 5 µM together with 0.5 mg mL-1 liver microsomes in potassium phosphate buffer in a reaction started by the addition of 1 mM NADPH […]
(§4) At these time points, 20 µL was withdrawn from the reaction mixture and 80 µL cold acetonitrile (ACN) containing the internal standard tolbutamide, was added to inactivate the enzymes and precipitate the proteins. The mixture was vortexed for 30 s and centrifuged at 4 °C for 5 min at 15,000 rpm. The supernatant was stored at -80°C until analysis. For the UGT enzymes, both compounds were incubated at 5 µM together with 0.5 mg mL-1 liver microsomes in a reaction started by the addition of 2 mM UDPGA cofactor. The corresponding loss of parent compound was determined using liquid chromatography (UPLC) (Waters AquityTM) coupled with tandem quadrupole mass spectrometry (MS²) (Waters XevoTM), equipped with an electrospray ionization (ESI) interface and operated in multiple reaction monitoring (MRM) mode. […]

[7] = Metabolic stability, mouse liver microsomes (phase I and II)
Procedure: as §2, §3, §4

[8] = Metabolic stability, rat liver microsomes (phase I and II)
Procedure: as §2, §3, §4

[9] = DCF +, single replicate, read-out: EC50
[10] = DCF -, single replicate, read-out: EC50
[11] = Trypanosoma brucei, DCF +, average of replicates, read-out: EC50 AVG
[12] = Trypanosoma brucei, DCF +, read-out: EC50 Reported value
[13] = Trypanosoma brucei, DCF -, average of replicates, read-out: EC50 AVG
[14] = Trypanosoma brucei, DCF -, read-out: EC50 Reported value
[15] = source data, read-out: B48 EC50, AVG
[16] = resistance factor vs Lister 427WT
[17] = source data, read-out: s427 EC50, AVG
[18] = source data, read-out: ISMR1 EC50, AVG

For `Nc1ncnc2c1ccn2[C@@H]1O[C@H](CO)[C@@H](O)[C@H]1O` [Tubercidin (6)], the EC50 [1, 9] was 173 nM and 283 nM and 470 nM, the EC50 [1, 10] was 227 nM and 250 nM and the EC50 [1, 11] was 309 nM. The EC50 [1, 12] was 310 ± 70 nM, the EC50 [1, 13] was 223 nM and the EC50 [1, 14] was 220 ± 10 nM. For the same molecule, the EC50 ([1]; Trypanosoma brucei, DCF -, single replicate, read-out: EC50) was 194 nM.

With `N=C(N)c1ccc(OCCCCCOc2ccc(C(=N)N)cc2)cc1` [Pentamidine, reference compound] the EC50 ([2]; mean and SEM, n = 3, read-out: B48 EC50) was 990 ± 160 nM, the EC50 [2, 15] was 877 nM and the “RF (B48)” value [2, 16] was 94.6***. It also gave an EC50 ([3]; mean and SEM, n = 3, read-out: Lister 427 EC50) of 11 ± 1 nM, an EC50 [3, 17] of 9.93 nM and an EC50 ([4]; mean and SEM, n = 3, read-out: ISMR1 EC50) of 140 ± 40 nM. The EC50 [4, 18] was 138 nM, the “RF (ISMR1)” value [4, 16] was 13.8** and the EC50 ([5]; read-out: TbAT1-KO EC50, mean and SEM, n = 3) was 18 ± 2 nM. For the same molecule, the “RF (TbAT1-KO)” value ([5]; resistance factor: ratio of EC50 of resistant and Lister 427WT) was 1.8**.

With `O=C(O)Cc1ccccc1Nc1c(Cl)cccc1Cl` [Diclo, diclofenac, reference compound] the “% parent compound remaining” value ([6]; CYP - NADPH, 15 min) was 35±0.4%, the “% parent compound remaining” value ([6]; CYP - NADPH, 30 min) was 14±0.8% and the “% parent compound remaining” value ([6]; CYP - NADPH, 60 min) was 2±0.4%. The “% parent compound remaining” value ([6]; UGT Enzymes, 15 min) was 17±1.1%, the “% parent compound remaining” value ([6]; UGT Enzymes, 30 min) was 14±0.7% and the “% parent compound remaining” value ([6]; UGT Enzymes, 60 min) was 10±0.1%. For the same molecule, the “% parent compound remaining” value ([7]; CYP - NADPH, 15 min) was 83±14%, the “% parent compound remaining” value ([7]; CYP - NADPH, 30 min) was 67±5.7% and the “% parent compound remaining” value ([7]; CYP - NADPH, 60 min) was 52±0.3%. The “% parent compound remaining” value ([7]; UGT Enzymes, 15 min) was 42±21%, the “% parent compound remaining” value ([7]; UGT Enzymes, 30 min) was 46±10% and the “% parent compound remaining” value ([7]; UGT Enzymes, 60 min) was 34±9%. For the same molecule, the “% parent compound remaining” value ([8]; CYP - NADPH, 15 min) was 59±9%, the “% parent compound remaining” value ([8]; CYP - NADPH, 30 min) was 39±2.6% and the “% parent compound remaining” value ([8]; CYP - NADPH, 60 min) was 10±2.9%. The “% parent compound remaining” value ([8]; UGT Enzymes, 15 min) was 28±4.5%, the “% parent compound remaining” value ([8]; UGT Enzymes, 30 min) was 14±1.5% and the “% parent compound remaining” value ([8]; UGT Enzymes, 60 min) was 11±0.9%.

For `Nc1ncnc2c1ncn2[C@@H]1O[C@H](CO)C[C@H]1O` [Cordycepin (3)], the EC50 [1, 9] was 5.51 nM and 1.22 nM and 4.17 nM, the EC50 [1, 10] was 169 nM and 509 nM and 634 nM and the EC50 [1, 11] was 3.63 nM. It also gave an EC50 [1, 12] of 3.6 ± 1 nM, an EC50 [1, 13] of 437 nM and an EC50 [1, 14] of 440 ± 110 nM.

With `Nc1ncnc2c1c(-c1ccccn1)cn2[C@@H]1O[C@H](CO)[C@@H](O)[C@H]1O` [Compound 7] the EC50 [2, 15] was 265 nM, the EC50 [3, 17] was 170 nM and the EC50 [4, 18] was 433 nM. It also gave an EC50 ([5]; read-out: TbAT1-KO EC50, AVG, source data) of 404 nM.
